Laboratory results from PubChem BioAssay AID2060912 (Molecular Pharmacology Branch, DTP, NCI, 2025).
pIC50: −log10 of the molar value.

Test system: HUVEC/MSC spheroids viability
Test: Human HUVEC/MSC cell line growth inhibition [KRAS2];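 on viability, T/C: percent of DMSO vehicle control luminescence so 100% = untreated viability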
Conditions: for pIC50: curve of first compound; for viability, T/C: stronger effect = lower value
In short: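 HUVEC + hMSC stromal spheroids only, no malignant cells; 37 °C, 5% CO2. Drugs singly and in pairs, half-log series down from clinical Cmax (max 10 microM if Cmax undetermined).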

[1] = second compound 0.0316 µM, first compound 0.0316 µM
[2] = second compound 0.0316 µM, first compound 0.1 µM
[3] = second compound 0.1 µM, first compound 0.0316 µM
[4] = second compound 0.1 µM, first compound 0.1 µM
[5] = second compound 0.316 µM, first compound 0.0316 µM
[6] = second compound 0.316 µM, first compound 0.1 µM
[7] = second compound 1 µM, first compound 0.0316 µM
[8] = second compound 1 µM, first compound 0.1 µM
[9] = second compound 3.16 µM, first compound 0.0316 µM
[10] = second compound 3.16 µM, first compound 0.1 µM
[11] = second compound 10 µM, first compound 0.0316 µM
[12] = second compound 10 µM, first compound 0.1 µM

With `CC(=O)OC12COC1CC(O)C1(C)C(=O)C(O)C3=C(C)C(OC(=O)C(O)C(NC(=O)OC(C)(C)C)c4ccccc4)CC(O)(C(OC(=O)c4ccccc4)C21)C3(C)C` (stereo unspecified) + COc1cc2nc(C)nc(NC(C)c3cc(N)cc(C(F)(F)F)c3)c2cc1OC1CCOC1 the pIC50 (second compound 0.0316 µM) was > 8.02, the pIC50 (second compound 0.1 µM) was < 5.52 and the pIC50 (second compound 0.316 µM) was > 8.02. For the same compound, the pIC50 (second compound 1 µM) was > 8.02, the pIC50 (second compound 3.16 µM) was < 5.52 and the pIC50 (second compound 10 µM) was 5.56. For the same compound, the viability, T/C (second compound 0.0316 µM, first compound 0.00949 µM) was 47.1%, the viability, T/C (second compound 0.0316 µM, first compound 0.03 µM) was 55.3% and the viability, T/C (second compound 0.0316 µM, first compound 0.0949 µM) was 53%. The viability, T/C (second compound 0.0316 µM, first compound 0.3 µM) was 36.7%, the viability, T/C (second compound 0.0316 µM, first compound 0.949 µM) was 51.9% and the viability, T/C (second compound 0.0316 µM, first compound 3 µM) was 60.4%. For the same compound, the viability, T/C (second compound 0.1 µM, first compound 0.00949 µM) was 50.7%, the viability, T/C (second compound 0.1 µM, first compound 0.03 µM) was 57% and the viability, T/C (second compound 0.1 µM, first compound 0.0949 µM) was 54%. For the same compound, the viability, T/C (second compound 0.1 µM, first compound 0.3 µM) was 44%, the viability, T/C (second compound 0.1 µM, first compound 0.949 µM) was 54.7% and the viability, T/C (second compound 0.1 µM, first compound 3 µM) was 61.5%. It also gave a viability, T/C (second compound 0.316 µM, first compound 0.00949 µM) of 45.5%, a viability, T/C (second compound 0.316 µM, first compound 0.03 µM) of 44.4% and a viability, T/C (second compound 0.316 µM, first compound 0.0949 µM) of 44.8%. For the same compound, the viability, T/C (second compound 0.316 µM, first compound 0.3 µM) was 49.3%, the viability, T/C (second compound 0.316 µM, first compound 0.949 µM) was 47.5% and the viability, T/C (second compound 0.316 µM, first compound 3 µM) was 57.1%. It also gave a viability, T/C (second compound 1 µM, first compound 0.00949 µM) of 45.5%, a viability, T/C (second compound 1 µM, first compound 0.03 µM) of 47.8% and a viability, T/C (second compound 1 µM, first compound 0.0949 µM) of 37.2%. For the same compound, the viability, T/C (second compound 1 µM, first compound 0.3 µM) was 57.1%, the viability, T/C (second compound 1 µM, first compound 0.949 µM) was 63.6% and the viability, T/C (second compound 1 µM, first compound 3 µM) was 47.9%. It also gave a viability, T/C (second compound 3.16 µM, first compound 0.00949 µM) of 51.5%, a viability, T/C (second compound 3.16 µM, first compound 0.03 µM) of 48.3% and a viability, T/C (second compound 3.16 µM, first compound 0.0949 µM) of 58.6%. For the same compound, the viability, T/C (second compound 3.16 µM, first compound 0.3 µM) was 48.1%, the viability, T/C (second compound 3.16 µM, first compound 0.949 µM) was 58.3% and the viability, T/C (second compound 3.16 µM, first compound 3 µM) was 50.6%. It also gave a viability, T/C (second compound 10 µM, first compound 0.00949 µM) of 52.4%, a viability, T/C (second compound 10 µM, first compound 0.03 µM) of 71.7% and a viability, T/C (second compound 10 µM, first compound 0.0949 µM) of 59.2%. The viability, T/C (second compound 10 µM, first compound 0.3 µM) was 58.1%, the viability, T/C (second compound 10 µM, first compound 0.949 µM) was 59.8% and the viability, T/C (second compound 10 µM, first compound 3 µM) was 49.3%.

In the case of `CN(C)C/C=C/C(=O)Nc1cc2c(Nc3ccc(F)c(Cl)c3)ncnc2cc1O[C@H]1CCOC1` + COc1cc2nc(C)nc(NC(C)c3cc(N)cc(C(F)(F)F)c3)c2cc1OC1CCOC1, the pIC50 (second compound 0.0316 µM) was < 7.00, the pIC50 (second compound 0.1 µM) was < 7.00 and the pIC50 (second compound 0.316 µM) was < 7.00. The pIC50 (second compound 1 µM) was < 7.00, the pIC50 (second compound 3.16 µM) was < 7.00 and the pIC50 (second compound 10 µM) was < 7.00. For the same compound, the viability, T/C (second compound 0.0316 µM, first compound 0.000316 µM) was 98.6%, the viability, T/C (second compound 0.0316 µM, first compound 0.001 µM) was 110% and the viability, T/C (second compound 0.0316 µM, first compound 0.00316 µM) was 104%. It also gave a viability, T/C (second compound 0.0316 µM, first compound 0.01 µM) of 92.8%, a viability, T/C [1] of 86.8% and a viability, T/C [2] of 107%. It also gave a viability, T/C (second compound 0.1 µM, first compound 0.000316 µM) of 96.3%, a viability, T/C (second compound 0.1 µM, first compound 0.001 µM) of 90.2% and a viability, T/C (second compound 0.1 µM, first compound 0.00316 µM) of 96.8%. It also gave a viability, T/C (second compound 0.1 µM, first compound 0.01 µM) of 73.7%, a viability, T/C [3] of 90.5% and a viability, T/C [4] of 85.1%. For the same compound, the viability, T/C (second compound 0.316 µM, first compound 0.000316 µM) was 132%, the viability, T/C (second compound 0.316 µM, first compound 0.001 µM) was 102% and the viability, T/C (second compound 0.316 µM, first compound 0.00316 µM) was 86.9%. The viability, T/C (second compound 0.316 µM, first compound 0.01 µM) was 99.3%, the viability, T/C [5] was 74.8% and the viability, T/C [6] was 97.3%. It also gave a viability, T/C (second compound 1 µM, first compound 0.000316 µM) of 112%, a viability, T/C (second compound 1 µM, first compound 0.001 µM) of 104% and a viability, T/C (second compound 1 µM, first compound 0.00316 µM) of 97.6%. The viability, T/C (second compound 1 µM, first compound 0.01 µM) was 84%, the viability, T/C [7] was 91.6% and the viability, T/C [8] was 104%. For the same compound, the viability, T/C (second compound 3.16 µM, first compound 0.000316 µM) was 91.6%, the viability, T/C (second compound 3.16 µM, first compound 0.001 µM) was 99.1% and the viability, T/C (second compound 3.16 µM, first compound 0.00316 µM) was 76.3%. The viability, T/C (second compound 3.16 µM, first compound 0.01 µM) was 95.8%, the viability, T/C [9] was 75.3% and the viability, T/C [10] was 83.7%. For the same compound, the viability, T/C (second compound 10 µM, first compound 0.000316 µM) was 60.7%, the viability, T/C (second compound 10 µM, first compound 0.001 µM) was 85.5% and the viability, T/C (second compound 10 µM, first compound 0.00316 µM) was 80%. It also gave a viability, T/C (second compound 10 µM, first compound 0.01 µM) of 59.6%, a viability, T/C [11] of 74.4% and a viability, T/C [12] of 74.4%.

For `O=C(c1cc(Cc2n[nH]c(=O)c3ccccc23)ccc1F)N1CCN(C(=O)C2CC2)CC1` + COc1cc2nc(C)nc(NC(C)c3cc(N)cc(C(F)(F)F)c3)c2cc1OC1CCOC1, the pIC50 (second compound 0.0316 µM) was < 5.00, the pIC50 (second compound 0.1 µM) was < 5.00 and the pIC50 (second compound 0.316 µM) was < 5.00. The pIC50 (second compound 1 µM) was < 5.00, the pIC50 (second compound 3.16 µM) was < 5.00 and the pIC50 (second compound 10 µM) was < 5.00. The viability, T/C [1] was 104%, the viability, T/C [2] was 108% and the viability, T/C (second compound 0.0316 µM, first compound 0.316 µM) was 102%. For the same compound, the viability, T/C (second compound 0.0316 µM, first compound 1 µM) was 94.2%, the viability, T/C (second compound 0.0316 µM, first compound 3.16 µM) was 89.7% and the viability, T/C (second compound 0.0316 µM, first compound 10 µM) was 99.3%. For the same compound, the viability, T/C [3] was 108%, the viability, T/C [4] was 101% and the viability, T/C (second compound 0.1 µM, first compound 0.316 µM) was 90.5%. It also gave a viability, T/C (second compound 0.1 µM, first compound 1 µM) of 89.5%, a viability, T/C (second compound 0.1 µM, first compound 3.16 µM) of 90.3% and a viability, T/C (second compound 0.1 µM, first compound 10 µM) of 83.9%. It also gave a viability, T/C [5] of 93.8%, a viability, T/C [6] of 92.9% and a viability, T/C (second compound 0.316 µM, first compound 0.316 µM) of 101%. It also gave a viability, T/C (second compound 0.316 µM, first compound 1 µM) of 93.8%, a viability, T/C (second compound 0.316 µM, first compound 3.16 µM) of 101% and a viability, T/C (second compound 0.316 µM, first compound 10 µM) of 115%. For the same compound, the viability, T/C [7] was 86.5%, the viability, T/C [8] was 115% and the viability, T/C (second compound 1 µM, first compound 0.316 µM) was 93.8%. The viability, T/C (second compound 1 µM, first compound 1 µM) was 88.8%, the viability, T/C (second compound 1 µM, first compound 3.16 µM) was 89.5% and the viability, T/C (second compound 1 µM, first compound 10 µM) was 93.2%. For the same compound, the viability, T/C [9] was 75%, the viability, T/C [10] was 101% and the viability, T/C (second compound 3.16 µM, first compound 0.316 µM) was 93%. For the same compound, the viability, T/C (second compound 3.16 µM, first compound 1 µM) was 82.2%, the viability, T/C (second compound 3.16 µM, first compound 3.16 µM) was 84.8% and the viability, T/C (second compound 3.16 µM, first compound 10 µM) was 101%. For the same compound, the viability, T/C [11] was 72.3%, the viability, T/C [12] was 76.5% and the viability, T/C (second compound 10 µM, first compound 0.316 µM) was 79.4%. The viability, T/C (second compound 10 µM, first compound 1 µM) was 68.2%, the viability, T/C (second compound 10 µM, first compound 3.16 µM) was 77.2% and the viability, T/C (second compound 10 µM, first compound 10 µM) was 63.2%.
